Laboratory results reported in US20260347347A1, “2-AZA-AND 2-OXABICYCLO[2.1.1]HEXANE DERIVATIVES AS FACTOR XIIA ENZYME INHIBITORS” (KALVISTA PHARMACEUTICALS LIMITED, priority 2022, published 2026).

target: T1, Human Factor XIIa (Homo sapiens, UniProt P00748); assay: Determination of FXIIa inhibition (in vitro IC50 assay, fluorogenic substrate H-DPro-Phe-Arg-AFC); assay type: biochemical; conditions: human Factor XIIa; fluorogenic substrate H-DPro-Phe-Arg-AFC at Km concentration; 5 min, 25 °C; class symbols H1/H2 for % inhibition at top concentration
T1 construct: purchased Enzyme Research Laboratories
T1 sequence (P00748 373-615 limits assumed): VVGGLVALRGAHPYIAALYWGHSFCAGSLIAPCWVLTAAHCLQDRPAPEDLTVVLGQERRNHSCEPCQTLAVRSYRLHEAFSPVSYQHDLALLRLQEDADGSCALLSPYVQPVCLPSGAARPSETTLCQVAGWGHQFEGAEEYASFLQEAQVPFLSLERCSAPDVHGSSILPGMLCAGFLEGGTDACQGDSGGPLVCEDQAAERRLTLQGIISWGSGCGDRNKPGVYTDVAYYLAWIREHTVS
T1 sequence (P00748 20-372 partner limits assumed): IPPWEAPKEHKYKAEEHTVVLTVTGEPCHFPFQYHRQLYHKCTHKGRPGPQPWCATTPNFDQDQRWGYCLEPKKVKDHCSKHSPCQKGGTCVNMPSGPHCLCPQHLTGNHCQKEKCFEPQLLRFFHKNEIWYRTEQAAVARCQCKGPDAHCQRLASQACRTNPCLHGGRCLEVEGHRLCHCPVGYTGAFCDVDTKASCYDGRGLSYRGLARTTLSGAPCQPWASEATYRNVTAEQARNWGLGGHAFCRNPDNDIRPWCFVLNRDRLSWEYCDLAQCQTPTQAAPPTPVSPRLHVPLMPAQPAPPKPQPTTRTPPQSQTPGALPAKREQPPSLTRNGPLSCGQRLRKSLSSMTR
Procedure: In vitro inhibition of Factor XIIa was determined using an IC50 assay based on standard literature methods (see e.g Baeriswyl et al., ACS Chem. Biol., 2015, 10 (8) 1861; Bouckaert et al., European Journal of Medicinal Chemistry 110 (2016) 181). Human Factor XIIa (Enzyme Research Laboratories) was incubated at 25 °C with the fluorogenic substrate H-DPro-Phe-Arg-AFC (Peptide Protein Science) and various concentrations of the test compound. Protease activity was measured by monitoring the accumulation of liberated fluorescence from the substrate over 5 min at 25 °C. The linear rate of fluorescence increase per minute was expressed as percentage (%) activity. The Km for the cleavage of the substrate by FXIIa was determined by standard transformation of the Michaelis-Menten equation. The compound inhibitor assays were performed at substrate Km concentration. IC50 values were calculated as the concentration of inhibitor giving 50% inhibition (IC50) of the uninhibited enzyme activity (100%).

Row | SMILES | Human FXIIa inhibition (compounds that did not achieve 50% inhibition)
1 | Cc1cc(OCC23CN(C(=O)NC4(c5ccccc5)CC4)C(CNc4ccccc4C#N)(C2)C3)cc(=O)n1C [Example 68, 1-(((2-cyanophenyl)amino)methyl)-4-(((1,6-dimethyl-2-oxo-1,2-dihydropyridin-4-yl)oxy)methyl)-N-(1-phenylcyclopropyl)-2-azabicyclo[2.1.1]hexane-2-carboxamide] | H1 (>20% inhibition @ 40 μM)

same assay, conditions: human Factor XIIa; fluorogenic substrate H-DPro-Phe-Arg-AFC at Km concentration; 5 min, 25 °C; class symbols; read-out: Human FXIIa IC50

Row | SMILES | IC50
2 | Cn1ccc(OCC23CN(C(=O)NC4CC5(CCC5)C4)C(CNc4cccc5c(N)nccc45)(C2)C3)cc1=O [Example 75, 1-(((1-aminoisoquinolin-5-yl)amino)methyl)-4-(((1-methyl-2-oxo-1,2-dihydropyridin-4-yl)oxy)methyl)-N-(spiro[3.3]heptan-2-yl)-2-azabicyclo[2.1.1]hexane-2-carboxamide] | 10 to 100 nM
3 | Cc1cc(OCC23CN(C(=O)NC4(c5ccccc5)CC4)C(CNc4cccc5c(N)nccc45)(C2)C3)cc(=O)n1C [Example 57, 1-(((1-aminoisoquinolin-5-yl)amino)methyl)-4-(((1,6-dimethyl-2-oxo-1,2-dihydropyridin-4-yl)oxy)methyl)-N-(1-phenylcyclopropyl)-2-azabicyclo[2.1.1]hexane-2-carboxamide] | 1 to 10 nM
4 | Nc1nccc2c(NCC34CC(CN5C(=O)CC[C@H]5c5ccccc5)(CO3)C4)cccc12 [Example 2, (S)-1-((1-(((1-aminoisoquinolin-5-yl)amino)methyl)-2-oxabicyclo[2.1.1]hexan-4-yl)methyl)-5-phenylpyrrolidin-2-one] | 3000 to 10000 nM
5 | Cn1ccc(OCC23CN(C(=O)N[C@@H]4C[C@H]4c4ccccc4)C(CNc4cccc5c(N)nccc45)(C2)C3)cc1=O (racemic) [Example 60, rac-1-(((1-aminoisoquinolin-5-yl)amino)methyl)-4-(((1-methyl-2-oxo-1,2-dihydropyridin-4-yl)oxy)methyl)-N-((1R,2S)-2-phenylcyclopropyl)-2-azabicyclo[2.1.1]hexane-2-carboxamide] | 1 to 10 nM
6 | C[C@H](NC(=O)N1CC2(COc3ccn(C)c(=O)c3)CC1(CNc1cccc3c(N)nccc13)C2)c1ccccc1 [Example 32, (S)-1-(((1-aminoisoquinolin-5-yl)amino)methyl)-4-(((1-methyl-2-oxo-1,2-dihydropyridin-4-yl)oxy)methyl)-N-(1-phenylethyl)-2-azabicyclo[2.1.1]hexane-2-carboxamide] | 10 to 100 nM
7 | Cn1ccc(OCC23CN(C(=O)N4CCOc5ccccc54)C(CNc4cccc5c(N)nccc45)(C2)C3)cc1=O [Example 35, 4-((1-(((1-aminoisoquinolin-5-yl)amino)methyl)-2-(3,4-dihydro-2H-benzo[b][1,4]oxazine-4-carbonyl)-2-azabicyclo[2.1.1]hexan-4-yl)methoxy)-1-methylpyridin-2(1H)-one] | 10 to 100 nM
8 | Cn1ccc(OCC23CN(C(=O)C(C)(C)Oc4ccccc4)C(CNc4cccc5c(N)nccc45)(C2)C3)cc1=O [Example 4, 4-((1-(((1-aminoisoquinolin-5-yl)amino)methyl)-2-(2-methyl-2-phenoxypropanoyl)-2-azabicyclo[2.1.1]hexan-4-yl)methoxy)-1-methylpyridin-2(1H)-one] | 100 to 300 nM
9 | Cn1ccc(OCC23CN(C(=O)NCC4CCOCC4)C(CNc4cccc5c(N)nccc45)(C2)C3)cc1=O [Example 77, 1-(((1-aminoisoquinolin-5-yl)amino)methyl)-4-(((1-methyl-2-oxo-1,2-dihydropyridin-4-yl)oxy)methyl)-N-((tetrahydro-2H-pyran-4-yl)methyl)-2-azabicyclo[2.1.1]hexane-2-carboxamide] | 10 to 100 nM
10 | Cc1cc(OCC23CN(c4nnc(C5CC5)o4)C(CNc4cccc5c(N)nccc45)(C2)C3)cc(=O)n1C [Example 105, 4-((1-(((1-aminoisoquinolin-5-yl)amino)methyl)-2-(5-cyclopropyl-1,3,4-oxadiazol-2-yl)-2-azabicyclo[2.1.1]hexan-4-yl)methoxy)-1,6-dimethylpyridin-2(1H)-one] | 1 to 10 nM
11 | Cc1cc(OCC23CN(C(=O)N4CCCC5(CC5)C4)C(CNc4cccc5c(N)nccc45)(C2)C3)cc(=O)n1C [Example 84, 4-((1-(((1-aminoisoquinolin-5-yl)amino)methyl)-2-(5-azaspiro[2.5]octane-5-carbonyl)-2-azabicyclo[2.1.1]hexan-4-yl)methoxy)-1,6-dimethylpyridin-2(1H)-one] | 10 to 100 nM
12 | Cn1ccc(OCC23CN(C(=O)NCCCOCc4ccccc4)C(CNc4cccc5c(N)nccc45)(C2)C3)cc1=O [Example 82, 1-(((1-aminoisoquinolin-5-yl)amino)methyl)-N-(3-(benzyloxy)propyl)-4-(((1-methyl-2-oxo-1,2-dihydropyridin-4-yl)oxy)methyl)-2-azabicyclo[2.1.1]hexane-2-carboxamide] | 10 to 100 nM
13 | Cn1ccc(OCC23CN(C(=O)CCc4ccc5c(c4)CCO5)C(CNc4cccc5c(N)nccc45)(C2)C3)cc1=O [Example 14, 4-((1-(((1-aminoisoquinolin-5-yl)amino)methyl)-2-(3-(2,3-dihydrobenzofuran-5-yl)propanoyl)-2-azabicyclo[2.1.1]hexan-4-yl)methoxy)-1-methylpyridin-2(1H)-one] | 10 to 100 nM
14 | C[C@@H](C(=O)N1CC2(COc3ccn(C)c(=O)c3)CC1(CNc1cccc3c(N)nccc13)C2)c1ccccc1 [Example 12, (R)-4-((1-(((1-aminoisoquinolin-5-yl)amino)methyl)-2-(2-phenylpropanoyl)-2-azabicyclo[2.1.1]hexan-4-yl)methoxy)-1-methylpyridin-2(1H)-one] | 10 to 100 nM
15 | Cn1ccc(OCC23CC(CNc4cccc5c(N)nccc45)(CN2C(=O)CC2CCCCC2)C3)cc1=O [Example 103, 4-((4-(((1-aminoisoquinolin-5-yl)amino)methyl)-2-(2-cyclohexylacetyl)-2-azabicyclo[2.1.1]hexan-1-yl)methoxy)-1-methylpyridin-2(1H)-one] | 300 to 1000 nM
16 | Cn1ccc(OCC23CN(C(=O)N4CCc5ccccc54)C(CNc4cccc5c(N)nccc45)(C2)C3)cc1=O [Example 34, 4-((1-(((1-aminoisoquinolin-5-yl)amino)methyl)-2-(indoline-1-carbonyl)-2-azabicyclo[2.1.1]hexan-4-yl)methoxy)-1-methylpyridin-2(1H)-one] | 10 to 100 nM
17 | Cn1ccc(OCC23CN(C(=O)C(C)(C)Cc4ccccc4)C(CNc4cccc5c(N)nccc45)(C2)C3)cc1=O [Example 7, 4-((1-(((1-aminoisoquinolin-5-yl)amino)methyl)-2-(2,2-dimethyl-3-phenylpropanoyl)-2-azabicyclo[2.1.1]hexan-4-yl)methoxy)-1-methylpyridin-2(1H)-one] | 100 to 300 nM
18 | Cc1cc(OCC23CN(C(=O)N4CC[C@@H](c5ccccc5)C4)C(CNc4cccc5c(N)nccc45)(C2)C3)cc(=O)n1C [Example 45, (S)-4-((1-(((1-aminoisoquinolin-5-yl)amino)methyl)-2-(3-phenylpyrrolidine-1-carbonyl)-2-azabicyclo[2.1.1]hexan-4-yl)methoxy)-1,6-dimethylpyridin-2(1H)-one] | 1 to 10 nM
19 | CN(CC1CC1)C(=O)N1CC2(COc3ccn(C)c(=O)c3)CC1(CNc1cccc3c(N)nccc13)C2 [Example 53, 1-(((1-aminoisoquinolin-5-yl)amino)methyl)-N-(cyclopropylmethyl)-N-methyl-4-(((1-methyl-2-oxo-1,2-dihydropyridin-4-yl)oxy)methyl)-2-azabicyclo[2.1.1]hexane-2-carboxamide] | 10 to 100 nM
